From the supplement of paper PMC11451515

Tested on: NOMO1
Experiment: cell viability relative to DMSO control; higher = less cytotoxic
Details: 48 h
Procedure, shortened: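 Viability was expressed as a per-plate percentage of DMSO wells, with cell-free wells as background. Leukemia cells (NOMO1 or SEM at 500 cells/well, P12-Ichikawa at 1000 cells/well) were adapted for at least four passages in each medium and seeded in 1536-well plates (5 μl). Library compounds in DMSO were pin-dosed over an 11-point threefold series from 47 μM to 0.79 nM, and CellTiter-Glo One luminescence was read after 48 h at 37°C.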

[1] = HPLM + 10% dialyzed FBS, 0.000781 µM
[2] = HPLM + 10% dialyzed FBS, 0.00234 µM
[3] = HPLM + 10% dialyzed FBS, 0.00702 µM
[4] = HPLM + 10% dialyzed FBS, 0.0211 µM
[5] = HPLM + 10% dialyzed FBS, 0.0632 µM
[6] = HPLM + 10% dialyzed FBS, 0.19 µM
[7] = HPLM + 10% dialyzed FBS, 0.569 µM
[8] = HPLM + 10% dialyzed FBS, 1.71 µM
[9] = HPLM + 10% dialyzed FBS, 5.12 µM
[10] = HPLM + 10% dialyzed FBS, 15.4 µM
[11] = HPLM + 10% dialyzed FBS, 46.1 µM
[12] = RPMI 5 mM glucose + 10% FBS, 0.000781 µM
[13] = RPMI 5 mM glucose + 10% FBS, 0.00234 µM
[14] = RPMI 5 mM glucose + 10% FBS, 0.00702 µM
[15] = RPMI 5 mM glucose + 10% FBS, 0.0211 µM
[16] = RPMI 5 mM glucose + 10% FBS, 0.0632 µM
[17] = RPMI 5 mM glucose + 10% FBS, 0.19 µM
[18] = RPMI 5 mM glucose + 10% FBS, 0.569 µM
[19] = RPMI 5 mM glucose + 10% FBS, 1.71 µM
[20] = RPMI 5 mM glucose + 10% FBS, 5.12 µM
[21] = RPMI 5 mM glucose + 10% FBS, 15.4 µM
[22] = RPMI 5 mM glucose + 10% FBS, 46.1 µM
[23] = RPMI 5 mM glucose + 10% dialyzed FBS, 0.000781 µM
[24] = RPMI 5 mM glucose + 10% dialyzed FBS, 0.00234 µM
[25] = RPMI 5 mM glucose + 10% dialyzed FBS, 0.00702 µM
[26] = RPMI 5 mM glucose + 10% dialyzed FBS, 0.0211 µM
[27] = RPMI 5 mM glucose + 10% dialyzed FBS, 0.0632 µM
[28] = RPMI 5 mM glucose + 10% dialyzed FBS, 0.19 µM
[29] = RPMI 5 mM glucose + 10% dialyzed FBS, 0.569 µM
[30] = RPMI 5 mM glucose + 10% dialyzed FBS, 1.71 µM
[31] = RPMI 5 mM glucose + 10% dialyzed FBS, 5.12 µM
[32] = RPMI 5 mM glucose + 10% dialyzed FBS, 15.4 µM
[33] = RPMI 5 mM glucose + 10% dialyzed FBS, 46.1 µM

| SMILES | cell viability [1] [%] | cell viability [2] [%] | cell viability [3] [%] | cell viability [4] [%] | cell viability [5] [%] | cell viability [6] [%] | cell viability [7] [%] | cell viability [8] [%] | cell viability [9] [%] | cell viability [10] [%] | cell viability [11] [%] | cell viability [12] [%] | cell viability [13] [%] | cell viability [14] [%] | cell viability [15] [%] | cell viability [16] [%] | cell viability [17] [%] | cell viability [18] [%] | cell viability [19] [%] | cell viability [20] [%] | cell viability [21] [%] | cell viability [22] [%] | cell viability [23] [%] | cell viability [24] [%] | cell viability [25] [%] | cell viability [26] [%] | cell viability [27] [%] | cell viability [28] [%] | cell viability [29] [%] | cell viability [30] [%] | cell viability [31] [%] | cell viability [32] [%] | cell viability [33] [%] |
| --- | --- | --- | --- | --- | --- | --- | --- | --- | --- | --- | --- | --- | --- | --- | --- | --- | --- | --- | --- | --- | --- | --- | --- | --- | --- | --- | --- | --- | --- | --- | --- | --- | --- |
| C[C@]12CC[C@H]3[C@@H](CCC/4=C/C(=O)CC[C@]34C)[C@@H]1CC[C@@H]2O | 93.4 | 113 | 126 | 111 | 136 | 126 | 123 | 111 | 130 | 127 | 137 | 109 | 118 | 134 | 143 | 146 | 145 | 129 | 134 | 147 | 153 | 147 | 107 | 121 | 135 | 137 | 142 | 141 | 147 | 129 | 145 | 138 | 143 |
| CN1C(=O)C[C@H](C(=O)N[C@@H](Cc2cnc[nH]2)C(=O)N2CCC[C@H]2C(N)=O)NC1=O | 119 | 122 | 109 | 113 | 116 | 125 | 126 | 130 | 104 | 108 | 107 | 126 | 115 | 121 | 119 | 126 | 132 | 114 | 124 | 116 | 115 | 114 | – | – | – | – | – | – | – | – | – | – | – |
| COc1cc2nc(-c3cc(F)ccc3O)nc(N[C@@H]3CNC[C@H]3C(C)(C)O)c2cc1OC | 111 | 115 | 108 | 128 | 93.5 | 122 | 124 | 109 | 109 | 89.4 | 38.4 | 107 | 105 | 108 | 103 | 101 | 115 | 109 | 122 | 114 | 106 | 49.4 | 101 | 97.8 | 100 | 118 | 106 | 112 | 112 | 96.6 | 99.6 | 88.4 | 53.7 |
| CC[C@@]1(O)C(=O)OC\C2=C1\C=C\3N(CC4=C3N=C5C=CC=CC5=C4)C2=O | 122 | 115 | 145 | 120 | 80.4 | 30.3 | 30.7 | 28.6 | 21.1 | 14.9 | 25.7 | 117 | 106 | 120 | 106 | 77.5 | 22.3 | 20.8 | 20.4 | 11.9 | 16.7 | 17.9 | 126 | 110 | 121 | 103 | 76.5 | 28.9 | 28.6 | 27.5 | 21.9 | 22.4 | 14 |
| CN[C@@H](C)C(=O)N[C@H]1CN(C(=O)CC(C)C)CC[C@H]2CC[C@@H](C(=O)NC(c3ccccc3)c3ccccc3)N2C1=O | 96.2 | 118 | 112 | 119 | 82.9 | 85.2 | 74 | 54.5 | 17.4 | 13.9 | 11.3 | 102 | 105 | 104 | 100 | 96.9 | 91.6 | 95.8 | 37 | 10.6 | 10.2 | 6.19 | 85.3 | 98.6 | 92.6 | 94.1 | 121 | 91.8 | 97.1 | 90.3 | 17.7 | 13.9 | 9.5 |
| CC[C@H](C)C(=O)O[C@H]1C[C@H](O)\C=C2\C=C/[C@H](C)[C@H](CC[C@@H](O)C[C@@H](O)CC(O)=O)[C@@H]12 | 123 | 116 | 118 | 119 | 125 | 123 | 110 | 101 | 103 | 104 | 84.1 | 114 | 111 | 118 | 106 | 117 | 126 | 116 | 116 | 104 | 105 | 102 | 105 | 110 | 117 | 104 | 101 | 110 | 112 | 101 | 103 | 107 | 99 |
| O=C(O)/C=C/c1ccc(O)c(O)c1 | 104 | 125 | 104 | 107 | 127 | 124 | 118 | 118 | 104 | 94.7 | 67 | 124 | 100 | 109 | 107 | 97.9 | 98.9 | 92.5 | 111 | 101 | 92.2 | 25.2 | 105 | 118 | 106 | 102 | 106 | 115 | 107 | 112 | 101 | 105 | 47.9 |
| Nc1nc(N)c2nc(-c3cccc(O)c3)c(-c3cccc(O)c3)nc2n1 | 124 | 135 | 110 | 128 | 116 | 126 | 123 | 108 | 79.6 | 47.8 | 17 | 106 | 115 | 102 | 116 | 112 | 117 | 105 | 111 | 91.6 | 90.6 | 4.68 | 119 | 106 | 107 | 112 | 114 | 110 | 105 | 108 | 96.7 | 78.5 | 42.2 |
| CN1CCCC(CC1)N2\N=C(CC3=CC=C(Cl)C=C3)/C4=C(C=CC=C4)C2=O (centres undefined) | 101 | 108 | 109 | 122 | 127 | 125 | 112 | 120 | 109 | 65.7 | 48.1 | 102 | 107 | 120 | 109 | 109 | 112 | 108 | 114 | 107 | 94.2 | 55.5 | 117 | 118 | 107 | 110 | 125 | 128 | 121 | 109 | 112 | 106 | 57.1 |
| C/C(O)=C(\C#N)C(=O)Nc1cc(Br)ccc1Br | 111 | 119 | 98.3 | 115 | 88.3 | 104 | 98.3 | 96.6 | 98.8 | 90.7 | 78.3 | 96.4 | 93.7 | 94.6 | 99.2 | 94 | 92.5 | 96.2 | 90 | 83 | 88 | 82.3 | 95.3 | 96 | 102 | 102 | 94.1 | 102 | 90 | 83.4 | 82.5 | 93.3 | 78 |
| COC1=CC=CC(=C1N)\C2=C\C(=O)C3=C(O2)C=CC=C3 | – | – | – | – | – | – | – | – | – | – | – | 120 | 121 | 119 | 117 | 143 | 125 | 143 | 124 | 126 | 121 | 116 | – | – | – | – | – | – | – | – | – | – | – |
| Cc1csc(NC(=O)c2sc3nc4c(c(C(F)(F)F)c3c2N)CCC4)n1 | 91.6 | 102 | 97.9 | 101 | 96.7 | 96.4 | 99.4 | 91.4 | 94 | 79.6 | 77.6 | 81.7 | 94.4 | 92.3 | 87.4 | 90.6 | 86 | 91.7 | 88.1 | 87.2 | 78.3 | 85.5 | 83.5 | 91.2 | 93 | 93.1 | 91.3 | 89.4 | 91 | 97.9 | 96.3 | 95.3 | 89.7 |
| CN(C)CCN(C)C(=O)c1ccc(NC(=O)Nc2ccc(-c3nc(N4CCOCC4)c4ccn(CC(F)(F)F)c4n3)cc2)cc1 | – | – | – | – | – | – | – | – | – | – | – | 101 | 115 | 117 | 130 | 109 | 91.2 | 74.5 | 70 | 75.7 | 78.7 | 81.9 | 116 | 113 | 113 | 121 | 92.6 | 78.5 | 81.7 | 67.4 | 72.5 | 68.1 | 69.5 |
| O=C(Nc1ncc(SCCN2CCCC2)s1)[C@]1(c2ccc([S+](=O)([O-])C3CC3)cc2)C[C@H]1C1CCCCC1 | 111 | 136 | 110 | 123 | 120 | 106 | 105 | 102 | 103 | 70.2 | 5.84 | 125 | 127 | 123 | 111 | 123 | 113 | 107 | 128 | 108 | 104 | 25.1 | 118 | 117 | 118 | 126 | 124 | 111 | 114 | 117 | 110 | 94.2 | 17.4 |
| COc1ccc2[nH]c([S+]([O-])Cc3ncc(C)c(OC)c3C)nc2c1 (centres undefined) | 89.2 | 78.3 | 90.9 | 88.4 | 95.9 | 83.7 | 85.5 | 89.9 | 87.3 | 86.6 | 59.8 | 74.9 | 100 | 78.3 | 97 | 80.7 | 92 | 90 | 100 | 96.3 | 93.5 | 89.1 | 70.7 | 91.7 | 68 | 98.7 | 93.4 | 95.6 | 87.8 | 97.9 | 86 | 91.1 | 82.3 |
| Cc1cc(Nc2nc(N[C@@H](C)c3ccc(F)cc3)c(C#N)cc2F)n[nH]1 | 108 | 101 | 109 | 113 | 93.9 | 99.9 | 114 | 92.3 | 36.4 | 68.8 | 58.6 | 88.9 | 94.7 | 91.2 | 99.2 | 90.9 | 81.2 | 89.5 | 83 | 20.7 | 36.1 | 45.5 | 79.8 | 104 | 104 | 103 | 96.8 | 97.5 | 98.7 | 91.1 | 28.3 | 36.1 | 55 |
